{"source": "ChEMBL document CHEMBL1201862", "about": "“PubChem BioAssay data set” (2004)", "test_in_all_cases": "NCI-60 cell line screen, 48 h", "key": {"[1]": {"test_system": "786-0"}, "[2]": {"test_system": "A498"}, "[3]": {"test_system": "A549"}, "[4]": {"test_system": "ACHN"}, "[5]": {"test_system": "BT-549"}, "[6]": {"test_system": "CAKI-1"}, "[7]": {"test_system": "CCRF-CEM"}, "[8]": {"test_system": "COLO 205"}, "[9]": {"test_system": "DU-145"}, "[10]": {"test_system": "EKVX"}, "[11]": {"test_system": "HCC 2998"}, "[12]": {"test_system": "HCT-116"}, "[13]": {"test_system": "HCT-15"}, "[14]": {"test_system": "HL-60"}, "[15]": {"test_system": "HOP-62"}, "[16]": {"test_system": "HOP-92"}, "[17]": {"test_system": "HT-29"}, "[18]": {"test_system": "Hs-578T"}, "[19]": {"test_system": "IGROV-1"}, "[20]": {"test_system": "K562"}, "[21]": {"test_system": "KM12"}, "[22]": {"test_system": "LOX IMVI"}, "[23]": {"test_system": "M14"}, "[24]": {"test_system": "MCF7"}, "[25]": {"test_system": "MDA-MB-231"}, "[26]": {"test_system": "MDA-MB-435"}, "[27]": {"test_system": "MDA-N"}, "[28]": {"test_system": "MOLT-4"}, "[29]": {"test_system": "Malme-3M"}, "[30]": {"test_system": "NCI-H226"}, "[31]": {"test_system": "NCI-H23"}, "[32]": {"test_system": "NCI-H460"}, "[33]": {"test_system": "NCI-H522"}, "[34]": {"test_system": "NCI/ADR-RES"}, "[35]": {"test_system": "OVCAR-3"}, "[36]": {"test_system": "OVCAR-4"}, "[37]": {"test_system": "OVCAR-5"}, "[38]": {"test_system": "OVCAR-8"}, "[39]": {"test_system": "PC-3"}, "[40]": {"test_system": "RPMI-8226"}, "[41]": {"test_system": "RXF 393"}, "[42]": {"test_system": "SF-268"}, "[43]": {"test_system": "SF-295"}, "[44]": {"test_system": "SF-539"}, "[45]": {"test_system": "SK-MEL-28"}, "[46]": {"test_system": "SK-MEL-2"}, "[47]": {"test_system": "SK-MEL-5"}, "[48]": {"test_system": "SK-OV-3"}, "[49]": {"test_system": "SN12C"}, "[50]": {"test_system": "SNB-19"}, "[51]": {"test_system": "SNB-75"}, "[52]": {"test_system": "SR"}, "[53]": {"test_system": "SW-620"}, "[54]": {"test_system": "T47D"}, "[55]": {"test_system": "TK-10"}, "[56]": {"test_system": "U-251"}, "[57]": {"test_system": "UACC-257"}, "[58]": {"test_system": "UACC-62"}, "[59]": {"test_system": "UO-31"}}, "note": "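A five-concentration, 48-hour dose response in 96-well plates underlies each endpoint, interpolated linearly between surrounding concentrations. GI50 marks 50% less growth.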 Activity calls are given as the source filed them. Cut-off read from the data, not from the text of the source: active = GI50 up to about 1.1 µM and inactive = higher."}
{"molecule": "CO[C@H]1C[C@H](O[C@H]2CC[C@]3(C=O)[C@H]4CC[C@]5(C)[C@@H](C6=CC(=O)OC6)CC[C@]5(O)[C@@H]4CC[C@]3(O)C2)O[C@H](C)[C@H]1O[C@@H]1O[C@H](CO[C@@H]2O[C@H](CO)[C@@H](O)[C@H](O)[C@H]2O)[C@@H](O)[C@H](O)[C@H]1O", "values": [{"measurement": "GI50", "setting": "[1]", "value": "27.2 nM (active)"}, {"measurement": "GI50", "setting": "[2]", "value": "89.1 nM (active)"}, {"measurement": "GI50", "setting": "[3]", "value": "< 13.1 nM (active)"}, {"measurement": "GI50", "setting": "[4]", "value": "18.6 nM (active)"}, {"measurement": "GI50", "setting": "[5]", "value": "39 nM (active)"}, {"measurement": "GI50", "setting": "[6]", "value": "22.3 nM (active)"}, {"measurement": "GI50", "setting": "[7]", "value": "> 100000 nM (inactive)"}, {"measurement": "GI50", "setting": "[8]", "value": "103 nM (active)"}, {"measurement": "GI50", "setting": "[9]", "value": "15.6 nM (active)"}, {"measurement": "GI50", "setting": "[10]", "value": "20.5 nM (active)"}, {"measurement": "GI50", "setting": "[11]", "value": "158 nM (active)"}, {"measurement": "GI50", "setting": "[12]", "value": "23.9 nM (active)"}, {"measurement": "GI50", "setting": "[13]", "value": 40.5, "unit": "nM"}, {"measurement": "GI50", "setting": "[14]", "value": "36.1 nM (active)"}, {"measurement": "GI50", "setting": "[15]", "value": "15.8 nM (active)"}, {"measurement": "GI50", "setting": "[16]", "value": "84.5 nM (active)"}, {"measurement": "GI50", "setting": "[17]", "value": "44.2 nM (active)"}, {"measurement": "GI50", "setting": "[18]", "value": "27.8 nM (active)"}, {"measurement": "GI50", "setting": "[19]", "value": "25.9 nM (active)"}, {"measurement": "GI50", "setting": "[20]", "value": "85.7 nM (active)"}, {"measurement": "GI50", "setting": "[21]", "value": "104 nM (active)"}, {"measurement": "GI50", "setting": "[22]", "value": "37.3 nM (active)"}, {"measurement": "GI50", "setting": "[23]", "value": "147 nM (active)"}, {"measurement": "GI50", "setting": "[24]", "value": "54.6 nM (active)"}, {"measurement": "GI50", "setting": "[25]", "value": "355 nM (active)"}, {"measurement": "GI50", "setting": "[26]", "value": "166 nM (active)"}, {"measurement": "GI50", "setting": "[27]", "value": "128 nM (active)"}, {"measurement": "GI50", "setting": "[28]", "value": "21.5 nM (active)"}, {"measurement": "GI50", "setting": "[29]", "value": "58.8 nM (active)"}, {"measurement": "GI50", "setting": "[30]", "value": "171 nM (active)"}, {"measurement": "GI50", "setting": "[31]", "value": "16 nM (active)"}, {"measurement": "GI50", "setting": "[32]", "value": "< 13.2 nM (active)"}, {"measurement": "GI50", "setting": "[33]", "value": "13.9 nM (active)"}, {"measurement": "GI50", "setting": "[34]", "value": "34 nM (active)"}, {"measurement": "GI50", "setting": "[35]", "value": "24.1 nM (active)"}, {"measurement": "GI50", "setting": "[36]", "value": "28.1 nM (active)"}, {"measurement": "GI50", "setting": "[37]", "value": "67.1 nM (active)"}, {"measurement": "GI50", "setting": "[38]", "value": "43.4 nM (active)"}, {"measurement": "GI50", "setting": "[39]", "value": "38 nM (active)"}, {"measurement": "GI50", "setting": "[40]", "value": "139 nM (active)"}, {"measurement": "GI50", "setting": "[41]", "value": "25.1 nM (active)"}, {"measurement": "GI50", "setting": "[42]", "value": "35.6 nM (active)"}, {"measurement": "GI50", "setting": "[43]", "value": "39.5 nM (active)"}, {"measurement": "GI50", "setting": "[44]", "value": "35.3 nM (active)"}, {"measurement": "GI50", "setting": "[45]", "value": "349 nM (active)"}, {"measurement": "GI50", "setting": "[46]", "value": "235 nM (active)"}, {"measurement": "GI50", "setting": "[47]", "value": "37 nM (active)"}, {"measurement": "GI50", "setting": "[48]", "value": "54.3 nM (active)"}, {"measurement": "GI50", "setting": "[49]", "value": "28.9 nM (active)"}, {"measurement": "GI50", "setting": "[50]", "value": "186 nM (active)"}, {"measurement": "GI50", "setting": "[51]", "value": "110 nM (active)"}, {"measurement": "GI50", "setting": "[52]", "value": "18.8 nM (active)"}, {"measurement": "GI50", "setting": "[53]", "value": "59.3 nM (active)"}, {"measurement": "GI50", "setting": "[54]", "value": "52.7 nM (active)"}, {"measurement": "GI50", "setting": "[55]", "value": "27.9 nM (active)"}, {"measurement": "GI50", "setting": "[56]", "value": "65.8 nM (active)"}, {"measurement": "GI50", "setting": "[57]", "value": "239 nM (active)"}, {"measurement": "GI50", "setting": "[58]", "value": "223 nM (active)"}, {"measurement": "GI50", "setting": "[59]", "value": "40.5 nM (active)"}]}
